Experimental data reported in ChEMBL document CHEMBL5584244, “Discovery of novel pyrrolo[2,1-c][1,4]benzodiazepine-3,11-dione (PBD) derivatives as selective HDAC6 inhibitors for the efficient treatment of idiopathic pulmonary fibrosis (IPF) in vitro and in vivo” (Eur J Med Chem, 2024).
Active and inactive are the calls of the source. No cut-off for these calls is given here.

How the values were obtained:
Mus musculus [1] = test: Anti-pulmonary fibrosis activity in bleomycin-induced C57BL/6 mouse model of pulmonary fibrosis assessed as decrease in thickening of the alveolar wall in lung at 50 to 100 mg/kg, ip for 3 weeks by H and E staining based fluorescence microscopic analysis; type: functional, organism-based; conditions: dose 50-100 mg/kg
HELF [2] = test: Anti-pulmonary fibrosis activity against TGF-beta1-induced HELF cells assessed as reduction in COL1A1 protein expression incubated for 48 hrs by Western blot analysis; type: functional, cell-based; conditions: Homo sapiens, dose 2.5-10 µM
Histone deacetylase 1 = Histone deacetylase 1 (Homo sapiens, UniProt Q13547); test: Inhibition of C-terminal His6/Flag-tagged recombinant human full length HDAC1 using Boc-Lys (Ac)-AMC as substrate incubated for 120 mins by fluorescence analysis
Histone deacetylase 1, sequence (Q13547 whole entry): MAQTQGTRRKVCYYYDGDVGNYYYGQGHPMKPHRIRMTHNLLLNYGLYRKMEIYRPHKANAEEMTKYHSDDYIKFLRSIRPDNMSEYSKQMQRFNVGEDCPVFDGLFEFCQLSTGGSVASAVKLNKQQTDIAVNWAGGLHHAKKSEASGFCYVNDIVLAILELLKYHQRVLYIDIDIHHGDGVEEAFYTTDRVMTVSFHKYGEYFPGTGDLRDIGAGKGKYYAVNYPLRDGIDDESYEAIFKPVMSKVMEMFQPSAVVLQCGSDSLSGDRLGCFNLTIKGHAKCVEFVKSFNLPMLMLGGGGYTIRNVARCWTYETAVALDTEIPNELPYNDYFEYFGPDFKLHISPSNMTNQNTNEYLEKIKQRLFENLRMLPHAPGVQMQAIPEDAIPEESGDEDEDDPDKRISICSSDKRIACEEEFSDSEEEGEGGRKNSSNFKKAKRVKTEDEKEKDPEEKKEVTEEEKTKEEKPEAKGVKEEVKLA

Histone deacetylase 4 = Histone deacetylase 4 (Homo sapiens, UniProt P56524); test: Inhibition of recombinant human HDAC4 using Boc-Lys (Ac)-AMC as substrate incubated for 120 mins by fluorescence analysis
Histone deacetylase 4, sequence (P56524 whole entry): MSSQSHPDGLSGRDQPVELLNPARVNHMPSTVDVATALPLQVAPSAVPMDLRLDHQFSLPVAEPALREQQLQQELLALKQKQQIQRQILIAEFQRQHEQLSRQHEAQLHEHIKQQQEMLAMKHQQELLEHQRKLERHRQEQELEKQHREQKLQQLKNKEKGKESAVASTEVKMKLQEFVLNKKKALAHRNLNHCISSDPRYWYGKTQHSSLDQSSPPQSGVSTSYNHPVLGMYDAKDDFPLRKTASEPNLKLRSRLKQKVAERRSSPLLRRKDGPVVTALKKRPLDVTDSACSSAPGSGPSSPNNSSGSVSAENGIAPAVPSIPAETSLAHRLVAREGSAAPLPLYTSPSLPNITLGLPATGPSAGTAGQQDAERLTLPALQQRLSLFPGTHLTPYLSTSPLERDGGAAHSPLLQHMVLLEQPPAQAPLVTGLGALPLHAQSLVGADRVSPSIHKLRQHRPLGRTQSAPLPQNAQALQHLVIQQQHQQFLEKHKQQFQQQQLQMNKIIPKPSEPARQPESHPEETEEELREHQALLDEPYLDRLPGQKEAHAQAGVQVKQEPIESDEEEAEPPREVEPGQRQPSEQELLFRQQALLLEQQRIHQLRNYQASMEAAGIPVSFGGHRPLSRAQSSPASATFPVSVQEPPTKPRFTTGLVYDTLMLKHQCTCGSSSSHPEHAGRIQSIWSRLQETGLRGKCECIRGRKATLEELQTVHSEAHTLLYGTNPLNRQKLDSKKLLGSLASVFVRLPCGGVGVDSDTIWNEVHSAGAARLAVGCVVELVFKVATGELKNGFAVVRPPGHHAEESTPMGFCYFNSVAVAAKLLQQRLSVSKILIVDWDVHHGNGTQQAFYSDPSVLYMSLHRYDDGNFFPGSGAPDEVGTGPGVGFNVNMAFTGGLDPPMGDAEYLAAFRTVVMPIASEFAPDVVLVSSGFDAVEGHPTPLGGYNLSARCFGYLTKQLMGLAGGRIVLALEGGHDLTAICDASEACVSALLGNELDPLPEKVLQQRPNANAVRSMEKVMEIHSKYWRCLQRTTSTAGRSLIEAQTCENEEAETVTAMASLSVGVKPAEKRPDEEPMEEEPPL

HELF [3] = test: Anti-pulmonary fibrosis activity against TGF-beta1-induced HELF cells assessed as reduction in alpha-SMA protein expression incubated for 48 hrs by Western blot analysis; type: functional, cell-based; conditions: Homo sapiens, dose 2.5-10 µM
Mus musculus [4] = test: Anti-pulmonary fibrosis activity in bleomycin-induced ip dosed C57BL/6 mouse model of pulmonary fibrosis assessed as inhibition of alpha-SMA protein expression level in lung for 3 weeks by immunohistochemical analysis; type: functional, organism-based; conditions: dose 50-100 mg/kg
[5] = biological target: T1, Protein deacetylase HDAC6 (Homo sapiens) (UniProt Q9UBN7); test: Inhibition of HDAC6 in TGF-beta1-induced HELF cells assessed as upregulation of acetylated alpha-tubulin level by Western blot analysis; type: cell-based; conditions: dose 2.5-10 µM
T1 sequence (whole entry): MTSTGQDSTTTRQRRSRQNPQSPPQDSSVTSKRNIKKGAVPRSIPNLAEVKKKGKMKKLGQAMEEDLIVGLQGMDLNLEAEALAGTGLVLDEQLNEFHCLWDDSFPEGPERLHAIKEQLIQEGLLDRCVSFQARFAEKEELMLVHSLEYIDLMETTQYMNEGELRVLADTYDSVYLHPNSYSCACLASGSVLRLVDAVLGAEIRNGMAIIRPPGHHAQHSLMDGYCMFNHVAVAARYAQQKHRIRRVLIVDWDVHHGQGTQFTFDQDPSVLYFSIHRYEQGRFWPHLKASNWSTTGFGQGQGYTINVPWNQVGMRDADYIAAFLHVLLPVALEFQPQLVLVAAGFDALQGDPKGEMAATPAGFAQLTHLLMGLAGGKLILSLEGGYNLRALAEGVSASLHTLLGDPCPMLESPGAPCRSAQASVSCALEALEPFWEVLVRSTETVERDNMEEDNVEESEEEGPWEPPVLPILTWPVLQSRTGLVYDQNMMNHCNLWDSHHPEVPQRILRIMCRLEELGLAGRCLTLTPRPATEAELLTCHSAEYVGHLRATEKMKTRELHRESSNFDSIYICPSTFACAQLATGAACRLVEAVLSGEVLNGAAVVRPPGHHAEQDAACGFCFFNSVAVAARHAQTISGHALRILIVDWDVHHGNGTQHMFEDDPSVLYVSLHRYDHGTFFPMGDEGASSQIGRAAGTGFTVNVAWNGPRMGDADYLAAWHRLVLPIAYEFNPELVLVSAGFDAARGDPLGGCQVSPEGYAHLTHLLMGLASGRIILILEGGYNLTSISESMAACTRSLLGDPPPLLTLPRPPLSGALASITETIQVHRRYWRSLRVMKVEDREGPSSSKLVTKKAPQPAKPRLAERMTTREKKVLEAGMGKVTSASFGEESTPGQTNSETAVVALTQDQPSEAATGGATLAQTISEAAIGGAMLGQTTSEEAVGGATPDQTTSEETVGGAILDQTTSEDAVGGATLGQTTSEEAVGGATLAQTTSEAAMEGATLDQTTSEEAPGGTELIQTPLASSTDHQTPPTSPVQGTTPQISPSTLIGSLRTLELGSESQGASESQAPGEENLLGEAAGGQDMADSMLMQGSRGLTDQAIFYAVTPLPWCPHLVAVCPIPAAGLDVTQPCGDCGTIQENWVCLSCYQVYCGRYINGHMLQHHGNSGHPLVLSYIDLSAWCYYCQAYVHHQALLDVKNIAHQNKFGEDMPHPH

[6] = biological target: T1, Protein deacetylase HDAC6 (Homo sapiens); test: Inhibition of HDAC6 in TGF-beta1-induced HELF cells assessed as upregulation of acetylated histone H3 level at 2.5 to 10 uM by Western blot analysis; type: cell-based; conditions: dose 2.5-10 µM
[7] = biological target: T2, Polyamine deacetylase HDAC10 (Homo sapiens, UniProt Q969S8); test: Inhibition of N-terminal FLAG-tagged recombinant human HDAC10 (2 to 631 residues) expressed in baculovirus sf9 insect cells expression system using Boc-Lys (Ac)-AMC as substrate incubated for 120 mins by fluorescence analysis
T2 sequence (Q969S8 whole entry): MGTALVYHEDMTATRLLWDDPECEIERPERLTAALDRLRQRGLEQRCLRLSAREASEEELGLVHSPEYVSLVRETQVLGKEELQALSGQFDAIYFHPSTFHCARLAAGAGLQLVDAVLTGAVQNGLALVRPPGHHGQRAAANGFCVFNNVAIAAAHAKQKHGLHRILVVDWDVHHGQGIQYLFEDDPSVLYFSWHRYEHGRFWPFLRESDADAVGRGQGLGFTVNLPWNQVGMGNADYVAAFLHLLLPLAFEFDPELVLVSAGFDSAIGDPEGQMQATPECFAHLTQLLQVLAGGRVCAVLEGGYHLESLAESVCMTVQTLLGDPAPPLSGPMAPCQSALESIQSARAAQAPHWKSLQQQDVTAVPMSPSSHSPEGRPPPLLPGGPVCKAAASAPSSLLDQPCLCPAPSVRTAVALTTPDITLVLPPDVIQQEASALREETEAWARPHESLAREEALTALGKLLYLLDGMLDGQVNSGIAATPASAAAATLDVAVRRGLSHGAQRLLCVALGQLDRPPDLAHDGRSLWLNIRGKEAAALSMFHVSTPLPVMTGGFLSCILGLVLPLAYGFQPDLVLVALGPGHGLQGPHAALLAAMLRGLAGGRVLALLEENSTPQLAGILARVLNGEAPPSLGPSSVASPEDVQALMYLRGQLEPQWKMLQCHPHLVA

[8] = Intrinsic clearance in human liver microsomes at 100 uM incubated upto 60 mins by LC-MS/MS analysis; type: ADME, Microsome; conditions: read-out: CLH
Mus musculus [9] = test: Anti-pulmonary fibrosis activity in bleomycin-induced ip dosed C57BL/6 mouse model of pulmonary fibrosis assessed as inhibition of Smad3 protein phosphorylation level in lung at for 3 weeks by immunohistochemical analysis; type: functional, organism-based; conditions: dose 50-100 mg/kg
[10] = Cytotoxicity against HELF cells assessed as reduction in viability at 2.5 to 10 uM after 48 hrs by MTT assay; type: toxicity, cell-based; conditions: human, dose 2.5-10 µM
Mus musculus [11] = test: Anti-pulmonary fibrosis activity in bleomycin-induced C57BL/6 mouse model of pulmonary fibrosis assessed as decrease structural damage in lung at 50 to 100 mg/kg, ip for 3 weeks by H and E staining based fluorescence microscopic analysis; type: functional, organism-based; conditions: dose 50-100 mg/kg
[12] = Stability of compound in human liver microsomes assessed as remaining parent compound at 100 uM incubated after 60 mins in presence of NADPH by LC-MS/MS analysis; type: ADME, Microsome; conditions: read-out: Stability

- IC50 (Histone deacetylase 1): 878 nM
- IC50 (Histone deacetylase 4): 847 nM
- inhibition [5]: Dose-Dependent Effect
- inhibition [6]: inactive
- IC50 [7]: 1320 nM
- microsomal CLint at 100 µM [8]: < 9.6 µL/min/mg
- remaining at 1 h, 100 µM [12]: 95.7%
Compound: CC(=O)O.O=C(NO)c1ccc(CN2C(=O)[C@@H]3CCCN3Cc3ccccc32)cc1
- Activity (Mus musculus [1]): inactive
- Activity (HELF [2]): Dose-Dependent Effect
- Activity (HELF [3]): Dose-Dependent Effect
- inhibition (Mus musculus [4]): Dose-Dependent Effect
- inhibition (Mus musculus [9]): Dose-Dependent Effect
- Activity [10]: Non-Toxic
- Activity (Mus musculus [11]): Active
